Laboratory results taken from patent publication US20060271062A1 (priority 2005, published 2006).
Where two headings read alike, the source gives them in different places.

How the values were obtained:
[1] = test system: residual lens epithelial cells; test: Intracapsular latrunculin-B during extracapsular lens extraction in rabbits (Example 1); type: in vivo, rabbit; settings: 2 μM
[2] = test system: residual lens epithelial cells; settings: rabbit, in vivo
[3] = test system: residual lens epithelial cells; type: cell-based, human
lens epithelial cells [4] = settings: rabbit, in vivo
lens epithelial cells [5] = type: cell-based, human
trabecular meshwork = settings: cited from earlier work
[6] = test system: lens, lens capsule or corneal endothelium and other adjacent tissues; settings: outflow facility-effective concentrations, infusion for 45-90 min; cited from earlier work
lens epithelial cell = settings: in vitro; cited from earlier work
[7] = 1 ml intracapsular for 10 minutes then 5 min irrigation/aspiration, vehicle 0.25% DMSO, light microscopy of fixed capsular bag

Structure (SMILES) | Lens epithelial cells removed in comparison to control vehicle, determined by LM [2] | Lens epithelial cells removed in comparison to control vehicle, determined by LM [3] | PCO formation or severity in comparison to control vehicle (lens epithelial cells [4]) | PCO formation or severity in comparison to control vehicle (lens epithelial cells [5]) | Inhibiting lens epithelial cell proliferation (lens epithelial cell) | further results
C/C1=C/C(=O)O[C@@H]2C[C@@H](CC[C@H](C)/C=C\CC1)O[C@@](O)([C@@H]1CSC(=O)N1)C2 [latrunculin-B] | more lens epithelial cells be removed | more lens epithelial cells be removed | prevent the formation or reduce the severity of PCO | prevent the formation or reduce the severity of PCO | – | Clearance of residual lens epithelial cells during the extracapsular lens extraction [1]: facilitated the clearance; Area A (dirty area with dense residual materials): treated eye versus vehicle-treated eye [1, 7]: no difference; Area B (relatively clean area): residual lens epithelial cells versus vehicle-treated eye [1, 7]: fewer residual lens epithelial cells; Outflow facility (trabecular meshwork; living monkeys, all concentrations named in b65 (latrunculin-B 0.5-2 μM, 0.01% topical; H-7 100-300 μM, 5% topical)): significantly increased; Observable damage to the lens, lens capsule or corneal endothelium and other adjacent tissues [6]: did not induce any observable damage
CC1CNCCN1S(=O)(=O)c1cccc2cnccc12 (stereo not drawn) [H-7, 1-(5-isoquinolinyl-sulfonyl)-2-methylpiperazine] | more lens epithelial cells be removed | more lens epithelial cells be removed | prevent the formation or reduce the severity of PCO | prevent the formation or reduce the severity of PCO | – | Outflow facility (trabecular meshwork; monkey, in vivo): significantly increased
O=c1[nH]cc(F)c(=O)[nH]1 [5-fluorouracil] | – | – | – | – | effective | –
COc1cccc2c1C(=O)c1c(O)c3c(c(O)c1C2=O)C[C@@](O)(C(C)=O)C[C@@H]3O[C@H]1C[C@H](N)[C@H](O)[C@H](C)O1 [daunomycin] | – | – | – | – | effective | –
CO[C@@]12[C@H](COC(N)=O)C3=C(C(=O)C(C)=C(N)C3=O)N1C[C@@H]1N[C@@H]12 [mitomycin C] | – | – | – | – | effective | –
COc1cc2c(c(OC)c1OC)-c1ccc(OC)c(=O)cc1[C@@H](NC(C)=O)CC2 [colchicine] | – | – | – | – | effective | –
